{"source": "a melting point compilation (Tetko et al.; mined from patent text by program, amines drawn as free bases though some values may be those of a salt)"}
{"units": {"melting point": "°C"}}
{"smiles": "N#CC(=Cc1ccc2[nH]ccc2c1)C(=O)c1ccc(O)c(O)c1", "melting point": 185}
{"smiles": "COc1cc2c(cc1O)CCN(C(=O)c1ccccc1OC)C2=O", "melting point": "199 to 200"}
{"smiles": "CCN1CCC(=O)N(c2ccccc2C(C)C)C1=S", "melting point": "118 to 122"}
{"smiles": "O=C=Nc1ccc(C(=S)OC2CCCCC2)c(Cl)c1", "melting point": "60 to 65"}
{"smiles": "NC(=O)C1Oc2cc(Cl)c(S(=O)(=O)c3ccc(Cl)cc3)cc2O1", "note": "(stereo not given)", "melting point": "240 to 242"}
{"smiles": "CC(=O)SCC(Cc1ccccc1)C(=O)Nc1cc(C)cc(C(=O)O)c1", "note": "(stereo not given)", "melting point": "160 to 161"}
{"smiles": "FC(F)(F)c1cc(Br)c2nc(N3CCN(c4ncccc4C(F)(F)F)CC3)[nH]c2c1", "melting point": 196}
{"smiles": "Cn1c2c3ccccc3nc-2cc2ccccc21", "melting point": "178 to 180"}
{"smiles": "CN1CCN(c2cccc3ccc(C(=O)NCc4ccc(Cl)cc4)cc23)CC1", "melting point": "72 to 74"}
{"smiles": "CS(=O)(=O)c1ccc(N2CC(CO)OC2=O)cc1", "note": "(stereo not given)", "melting point": "177 to 180"}
{"smiles": "N#CCSc1nc2cc(Cl)ccc2s1", "melting point": "96 to 97"}
{"smiles": "COC(=O)c1ccc(CCn2ccn(C3CCc4ccccc4C3)c2=S)cc1", "note": "(stereo not given)", "melting point": "159 to 161"}
{"smiles": "CCOc1ccc(NC=C(C#N)C(=O)Nc2cc(OC)c(Cl)cc2Cl)cc1I", "melting point": "> 245"}
{"smiles": "CC(=O)c1cc(CS(C)(=O)=O)ccc1O", "melting point": "142 to 144"}
{"smiles": "CCCc1c(OCc2nc(N)c3nccnc3n2)ccc(C(C)=O)c1O", "melting point": "178 to 180"}
{"smiles": "Cn1ccnc1Sc1c(Cl)cccc1Cl", "melting point": "113 to 115"}
{"smiles": "Cc1cc2c(cc1S(=O)(=O)c1ccc(F)cc1)OC(C(=O)O)O2", "note": "(stereo not given)", "melting point": "157 to 158"}
{"smiles": "Cc1nnc(-c2nnc(S)o2)o1", "melting point": "150 to 151"}
{"smiles": "CCCCC(NC(=O)OCc1ccccc1)C(=O)Nc1n[nH]c(=S)s1", "note": "(stereo not given)", "melting point": "169 to 171"}
{"smiles": "COc1ccc2c(-c3ccccc3)c(C(=O)c3cccc(Cl)c3)sc2c1", "melting point": 105}
{"smiles": "Nc1cc(C(=O)NC2CC2)n(-c2nc(Cl)nc3ccoc23)n1", "melting point": 219}
{"smiles": "Fc1ccccc1-c1nc(N2CCNCC2)nc2ccccc12", "melting point": "132 to 133"}
{"smiles": "Cc1ccc(Cn2nc(CCl)cc2-c2ccc(Cl)c(Cl)c2)cc1Cl", "melting point": 88}
{"smiles": "CCOC(=O)c1cn(C(C)(C)C)c2nc(F)c(Cl)cc2c1=O", "melting point": 155}
{"smiles": "COc1ccc(CN(C)CCCc2ccc(NC(=O)c3cccc4c(=O)c5cccc(F)c5[nH]c34)c(C)c2)cc1OC", "melting point": 132}
{"smiles": "COC(=O)CC(C)C1CCC2C3CC=C4CC(OC(C)=O)CC(OC(C)=O)C4(C)C3CCC12C", "note": "(stereo not given)", "melting point": "123 to 124"}
{"smiles": "CCOc1cc(OCCCc2cn(-c3ccccn3)nc2OCC)ccc1CCC(=O)O", "melting point": "110 to 111"}
{"smiles": "O=C(O)c1cc(S)cc(C(=O)O)c1", "melting point": "240 to 246"}
{"smiles": "CC(=O)c1sc(N2CCN(Cc3cccc(C(F)(F)F)c3)C2=O)nc1C", "melting point": "149 to 151"}
{"smiles": "O=C(c1ccccc1)C(c1ccc(Cl)cc1Cl)C(F)n1cncn1", "note": "(stereo not given)", "melting point": "104 to 108"}
{"smiles": "COCCc1sc2ncnc(N)c2c1-c1ccc(NC(=O)Nc2cc(C(F)(F)F)ccc2F)cc1", "melting point": "209 to 211"}
{"smiles": "CC(=NOCCOc1ccc(CC2SC(=O)NC2=O)cc1)c1ccc(-c2ccccc2)nc1", "note": "(stereo not given)", "melting point": "186 to 187"}
{"smiles": "COc1ccc(CCNC(=O)CC=CCC(=O)NCCc2ccccc2)cc1OC", "melting point": "150 to 152"}
{"smiles": "Nc1ccccc1/C=C/C(=O)CC(=O)/C=C/c1ccc(O)cc1", "melting point": "186 to 193"}
{"smiles": "Cc1oc(-c2ccc3ccccc3c2)nc1C=Cc1ccc(/C=C/C=O)cc1", "melting point": "213 to 214"}
{"smiles": "COc1cn(-c2ccc(C#CC3CC3)cc2F)nc(-c2ccnn2-c2ccccc2)c1=O", "melting point": "145 to 146"}
{"smiles": "COc1ccc(N2CCOCC2)c2sc(C(=O)NCC(=O)c3ccc4c(c3)OCCO4)nc12", "melting point": 175}
{"smiles": "C=C(Cc1ccc(C=Cc2ccc(CC(=C)C(=O)OCC)cc2)cc1)C(=O)O", "melting point": "123 to 125"}
{"smiles": "CCCCCCCCNc1c(Nc2ccc(CC(C)NC[C@H](O)COc3ccccc3)cc2)c(=O)c1=O", "note": "(stereo not given in full)", "melting point": "146 to 155"}
{"smiles": "CC(=NNC(=N)N)c1sc(-c2ccc3ccccc3c2)nc1C", "melting point": "288 to 290"}
{"smiles": "CNCC1Cc2cc(-c3ccccc3)cc(-c3cccc(F)c3)c2O1", "note": "(stereo not given)", "melting point": "> 250"}
{"smiles": "COC(=O)C(=Cc1cccc(-c2ccc(Cl)cc2)c1)NC(C)=O", "melting point": 168}
{"smiles": "CS(=O)(=O)c1ncc(OCc2ccccc2)cn1", "melting point": "100 to 102"}
{"smiles": "O=C(O)c1cc([N+](=O)[O-])c(F)c(F)c1F", "melting point": "128 to 129"}
{"smiles": "COc1ccc(C(=O)C2=C(c3ccccc3)c3ccc(OC)cc3S2=O)cc1", "note": "(stereo not given)", "melting point": "191 to 192"}
{"smiles": "COC(=O)c1nc(Cl)c(F)c(N)c1Cl", "melting point": "128 to 131"}
{"smiles": "CC(NC(=O)OCc1ccccc1)C(=O)N1CC(=O)N(CC(N)=O)C1(C)C", "note": "(stereo not given)", "melting point": "206 to 210"}
{"smiles": "CC(C)(C)OC(=O)Nc1ccc(C#Cc2ccc(Cl)cc2)cc1N", "melting point": "170 to 173"}
{"smiles": "CCCCCCCCCCCCCCCCCCS(=O)(=O)c1cc(C(=O)OC)c([N+](=O)[O-])c(C(=O)OC)c1", "melting point": "98 to 100"}
{"smiles": "O=C(c1sc(Nc2ccccc2)c2c1CCc1cnoc1-2)N1CCOCC1", "melting point": "177 to 178"}
{"smiles": "CCCCNC(=O)NCCCCCCCCCCCCN", "melting point": 97}
{"smiles": "Cn1c(=O)c2c(nc3n2CC(O)CN3Cc2ccccc2)n(C)c1=O", "note": "(stereo not given)", "melting point": "225 to 227"}
{"smiles": "CN(C)CCCOc1cc(F)c(-c2c(Cl)nc3nccn3c2NCC(F)(F)F)c(F)c1", "melting point": "52 to 55"}
{"smiles": "Cc1nc[nH]c1CSCCN=C(NC#N)NCCCCCCCCN", "melting point": "122 to 124"}
{"smiles": "CN1Cc2c(-c3nc(CN4Cc5ccccc5C4)no3)ncn2-c2ccccc2C1=O", "melting point": "155 to 160"}
{"smiles": "Brc1ccc2cc(Cc3cc4ccc(Br)cc4o3)oc2c1", "melting point": "146 to 147"}
{"smiles": "COCCn1ccc2cc(NC(=O)/C=C/c3ccc(C(C)(C)C)cc3)ccc21", "melting point": 138}
{"smiles": "CN1CN(c2ccccc2)c2ncccc2C1=O", "melting point": "140 to 141"}
{"smiles": "Cc1ccc(NC(=O)c2cccc(C(F)(F)F)c2)cc1-c1ccc2ccncc2c1", "melting point": "148 to 152"}
{"smiles": "CC(C)(F)Cn1c(CO)nc2c(N)nc3cccnc3c21", "melting point": "240 to 241"}
{"smiles": "C#C[C@H]1CC[C@H](C(=O)O)CC1", "melting point": "161 to 162"}
{"smiles": "O=C1NCC[C@@H]1NCc1ccc(OCc2cccc(F)c2)cc1", "melting point": "140 to 144"}
{"smiles": "CC(=O)Cc1ccc(NC(=O)/C=C/c2cnn(C)c2-c2ccc(F)cc2)cc1", "melting point": "186 to 187"}
{"smiles": "Oc1ccc(Nc2nc(Cl)nc(NCc3ccco3)n2)cc1", "melting point": "188 to 190"}
{"smiles": "Cc1c(CC(=O)NOCc2ccccc2)c2cc(OCc3nc4ccccc4s3)ccc2n1Cc1ccc(Cl)cc1", "melting point": "183 to 186"}
{"smiles": "CON(C)C(=O)Nc1ccc(CN2OCCC(C)(SC)C2=O)c(Cl)c1", "note": "(stereo not given)", "melting point": "88 to 91"}
{"smiles": "CN1CC=C(c2c[nH]c3ccc(NC(=N)c4cccs4)cc23)CC1", "melting point": "215 to 218"}
{"smiles": "O=C1C(O)=C(N2CCN(c3cccc(C(F)(F)F)c3)CC2)C(=O)c2ccccc21", "melting point": "167 to 169"}
{"smiles": "COc1ccc(C(=O)O)c(OCc2ccc(OCCc3nc(-c4ccccc4)oc3C)cc2)c1", "melting point": "113 to 115"}
{"smiles": "Cc1cncn1CC(=O)CCc1ccc(Cl)cc1", "melting point": "227 to 228"}
{"smiles": "Nc1cc(C(c2cc(F)ccc2F)S(=O)(=O)c2ccc(Cl)nc2)c(Cl)cn1", "note": "(stereo not given)", "melting point": "157 to 158"}
{"smiles": "CS(=O)(=O)Nn1c(=O)[nH]c2cc(C(F)(F)F)c(-n3cnc(C#N)c3)cc2c1=O", "melting point": "143 to 145"}
{"smiles": "COc1ccc(CCC(=O)NCCc2cccc(C)c2)cc1OC", "melting point": "100 to 103"}
{"smiles": "COC(=O)c1cn2c(C)csc2n1", "melting point": "170 to 173"}
{"smiles": "COc1nnccc1-c1ccccc1OCC(O)CNC(C)(C)C", "note": "(stereo not given)", "melting point": 110}
{"smiles": "O=[N+]([O-])c1cc(-c2ccccc2)ccc1Cl", "melting point": "43 to 44"}
{"smiles": "CC(CN1CCCC1)N1c2ccccc2Sc2ccc(C(N)=S)cc21", "note": "(racemic)", "melting point": 150}
{"smiles": "CCCCN(CCCC)c1ccc(C=Cc2cc(C)c(C=CC3=C(C#N)C(=C(C#N)C#N)OC3(C)C(F)(F)F)cc2C)c(OC)c1", "note": "(stereo not given)", "melting point": "205 to 207"}
{"smiles": "CC(CC(=O)O)=NNC(=N)N", "melting point": "139 to 140"}
{"smiles": "O=C(Cn1nnc2ccccc21)Nc1ccc(-n2nc(C3CC3)cc2C2CC2)cc1", "melting point": "216 to 220"}
{"smiles": "Nc1ccccc1OCc1nc(Cl)ccc1Cl", "melting point": "74 to 75"}
{"smiles": "COc1cc2c(cc1Br)-c1cc3c(n1CC2)C(=O)N(C(C)(C)C)CCC3", "melting point": "163 to 165"}
{"smiles": "O=C(O)c1cc(=O)n(Cc2ccccc2S(=O)(=O)O)[nH]1", "melting point": "223 to 226"}
{"smiles": "CC(C)C(c1cncnc1C(F)(F)F)N1CCN(c2ccccc2)C1=O", "note": "(stereo not given)", "melting point": "126 to 128"}
{"smiles": "CC(O)c1cc(S(N)(=O)=O)sc1Sc1ccc(O)cc1", "note": "(stereo not given)", "melting point": "133 to 137"}
{"smiles": "CSC[C@@H](NC(=O)OCc1ccccc1)[C@@H]1COC(C)(C)O1", "melting point": "70 to 71"}
{"smiles": "O=C(C=Cc1ccccc1)c1ccc(N2CCN(c3ccncc3)CC2)cc1", "melting point": "208 to 210"}
{"smiles": "COC(=O)c1c(C)nc(C)c(C(=O)Cl)c1-c1ccccc1[N+](=O)[O-]", "melting point": "96 to 98"}
{"smiles": "CCCCc1c(C(=O)N(C)Cc2ccc3c(Br)c(OCC(Cc4ccccc4)C(=O)O)ccc3c2)oc2ccccc12", "note": "(stereo not given)", "melting point": "64 to 68"}
{"smiles": "CN1C(=O)CC[C@]2(C)c3ccc(-c4ccc(C(F)(F)F)cc4[N+](=O)[O-])cc3CC[C@@H]12", "melting point": "55 to 57"}
{"smiles": "CCCCCC(=O)n1c(=O)n(CCCC)c(=O)n1C(=O)CCCCC", "melting point": "88 to 89"}
{"smiles": "Cc1ccccc1S(=O)(=O)NC(=O)c1ccc2c(ccn2Cc2cccc([N+](=O)[O-])c2)c1", "melting point": "208 to 210"}
{"smiles": "O=C1Cc2ccccc2Oc2ccccc2C1", "melting point": 86}
{"smiles": "COc1ccc(C=CC2=NN(C(C)=O)C(C)Cc3cc(OC)c(OC)cc32)c(OC)c1", "note": "(stereo not given)", "melting point": "85 to 87"}
{"smiles": "COc1cc2c(c(OC)c1/C=C/c1ccc(CN)cc1)C(C)(C)CCC2(C)C", "melting point": "59 to 60"}
{"smiles": "CC(C)(C)n1ncc(S)c(Cl)c1=O", "melting point": "112 to 113"}
{"smiles": "COc1ccc2c(c1)OCC(NNc1ncnc3c1ncn3C1OC(CO)C(O)C1O)C2", "note": "(stereo not given)", "melting point": "205 to 207"}
{"smiles": "CC(C)(CCCSCSCCCC(C)(C)C(=O)O)C(=O)O", "melting point": "72 to 72.5"}
{"smiles": "O=C1CC(c2cccc(-n3ccnc3)c2)=Nc2cc(O)c(-c3ccccc3F)cc2N1", "melting point": 220}
{"smiles": "CCC1(C)CC(=O)C(C(=O)Nc2cc(C(F)(F)F)cc(C(F)(F)F)c2)C(=O)C1", "note": "(stereo not given)", "melting point": "72 to 73"}
